The values below come from patent US6656694B2, “Method for identifying a ligand for a biological substrate” (Theravance, Inc., priority 2001, dated 2003).

Experiment [1] deals with T1, human cloned muscarinic receptor (M2) (Homo sapiens, UniProt P08172).
T1 sequence (P08172 1-466): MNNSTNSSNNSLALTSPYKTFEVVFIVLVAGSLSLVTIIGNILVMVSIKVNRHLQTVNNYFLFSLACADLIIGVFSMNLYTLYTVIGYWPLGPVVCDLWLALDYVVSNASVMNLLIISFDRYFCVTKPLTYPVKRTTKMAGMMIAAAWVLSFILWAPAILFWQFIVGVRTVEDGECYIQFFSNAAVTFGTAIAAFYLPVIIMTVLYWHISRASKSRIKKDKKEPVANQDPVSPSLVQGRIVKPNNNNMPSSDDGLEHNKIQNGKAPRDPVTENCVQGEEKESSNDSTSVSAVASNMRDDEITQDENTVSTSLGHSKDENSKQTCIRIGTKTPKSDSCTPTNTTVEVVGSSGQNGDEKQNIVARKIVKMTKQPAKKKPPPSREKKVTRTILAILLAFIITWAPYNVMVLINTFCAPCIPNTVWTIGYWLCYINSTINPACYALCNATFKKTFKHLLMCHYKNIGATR
Briefly: Binding of Compound D to the receptor measured using 3H-NMS. The conditions noted are these: stated more potent than Compound A. The method, then:
(§1) d) membrane containing human cloned muscarinic receptor (prepared by expressing M2 coding plasmid in CHO cells using well-known procedures and reagents).
(§2) The 96 well plate is then incubated for 1 hour at 37° C. After incubation, the membranes are filtered to separate bound from unbound ^3H-NMS. Scintillant is then added, and the plate is placed in a counter to measure the radioactivity in each well.
The binding of Compound D to the receptor is then measured using ^3H-NMS.

For experiment [2], the target named is T2, human cloned muscarinic receptor (M2), second binding site (Homo sapiens, UniProt P08172).
T2 sequence (P08172 1-466): T1 sequence (P08172 1-466)
Briefly: Screening of candidate compounds: effect on 3H-NMS binding in the presence of multibinding Compound A. The note with it: candidate 500 nM; Compound A 200 nM; 3H-NMS 10 nM; PBS pH 7.4; CHO membranes; 1 hour at 37° C.; B and C relative to each other. The procedure:
Into each well in a 96 well place, the following are added:
a) Compound A, such that the final concentration in the well is 200 nM (10 times the Kd of Compound A) in phosphate buffered saline at pH 7.4;
b) tritiated N-methyl scopalamine (^3H-NMS), such that the final concentration in each well is 10 nM (0.5 times the Kd of ^3H-NMS);
c) a candidate compound at a final concentration of 500 nM, the candidate compound being selected from amines including Compound B and Compound C (which are commercially available); [drawing 5]
as §1, §2
The amount of radioactivity determined for each well is then compared to a pre-determined amount of radioactivity measured using the above procedure in the absence of a candidate compound. […]

Molecule `COc1cccc(OC)c1CN1CCC(N(C)CCCCCCCN2CCC(OC(=O)Nc3ccccc3-c3ccccc3)CC2)CC1` [Compound D] showed a Kd in experiment [1] of 2 nM. `O=C(Nc1ccc2ccccc2c1)C1CC(O)CN1` (stereo not drawn) [Compound B]: in experiment [2], the “binding to the receptor (radioactivity of bound 3H-NMS observed)” value is recorded as “bind weakly”. For `CNC1CCN(Cc2c(OC)cccc2OC)CC1` [Compound C], in experiment [2], the “binding to the receptor (radioactivity of bound 3H-NMS observed)” value was “bind strongly”.
